Legend:
Assay in all cases: relative viability (nuclei count vs DMSO), 5 days (fraction); higher = more cells survive
CAL-12T = tested on: CAL-12T
Procedure, shortened: (§1)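 Relative viability equals treated-well nuclei counts divided by vehicle-well nuclei counts. Counts came from 4× images of lung cancer cell lines grown in 1536-well plates for 5 days after pin-tool dosing on the day after seeding. Dosing used one drug alone or a fixed anchor-drug dose plus five library-drug doses (not always all listed) in √10 steps, and values are medians of duplicate plates.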

NCI-H441 = tested on: NCI-H441
Procedure, shortened: as §1

HCC-15 = tested on: HCC-15
Procedure, shortened: as §1

NCI-H1651 = tested on: NCI-H1651
Procedure, shortened: as §1

NCI-H2085 = tested on: NCI-H2085
Procedure, shortened: as §1

EKVX = tested on: EKVX
Procedure, shortened: as §1

HCC-366 = tested on: HCC-366
Procedure, shortened: as §1

NCI-H460 = tested on: NCI-H460
Procedure, shortened: as §1

NCI-H2023 = tested on: NCI-H2023
Procedure, shortened: as §1

LOU-NH91 = tested on: LOU-NH91
Procedure, shortened: as §1

NCI-H1734 = tested on: NCI-H1734
Procedure, shortened: as §1

NCI-H838 = tested on: NCI-H838
Procedure, shortened: as §1

LCLC-103H = tested on: LCLC-103H
Procedure, shortened: as §1

NCI-H1355 = tested on: NCI-H1355
Procedure, shortened: as §1

NCI-H1395 = tested on: NCI-H1395
Procedure, shortened: as §1

NCI-H1975 = tested on: NCI-H1975
Procedure, shortened: as §1

BEN = tested on: BEN
Procedure, shortened: as §1

NCI-H1437 = tested on: NCI-H1437
Procedure, shortened: as §1

NCI-H1563 = tested on: NCI-H1563
Procedure, shortened: as §1

NCI-H358 = tested on: NCI-H358
Procedure, shortened: as §1

HCC-44 = tested on: HCC-44
Procedure, shortened: as §1

NCI-H1755 = tested on: NCI-H1755
Procedure, shortened: as §1

## C[C@@H]1CN(CC(=O)Nc2ccc3c(c2)Cc2cccc(-c4cc(=O)cc(N5CCOCC5)o4)c2S3)C[C@H](C)O1 + C[C@]1(O)C[C@@H](c2nc(-c3ccc4ccc(-c5ccccc5)nc4c3)c3c(N)nccn32)C1 [Linsitinib] (partner 1 µM)
CAL-12T; first compound 0.04 µM
  relative viability: 0.893
CAL-12T; first compound 0.1265 µM
  relative viability: 0.78
CAL-12T; first compound 0.4 µM
  relative viability: 0.648
CAL-12T; first compound 4 µM
  relative viability: 0.54
NCI-H441; first compound 0.04 µM
  relative viability: 0.404
NCI-H441; first compound 0.1265 µM
  relative viability: 0.573
NCI-H441; first compound 0.4 µM
  relative viability: 0.536
NCI-H441; first compound 4 µM
  relative viability: 0.433
HCC-15; first compound 0.04 µM
  relative viability: 0.85
HCC-15; first compound 0.1265 µM
  relative viability: 0.809
HCC-15; first compound 0.4 µM
  relative viability: 0.878
HCC-15; first compound 4 µM
  relative viability: 0.674
NCI-H1651; first compound 0.04 µM
  relative viability: 1.01
NCI-H1651; first compound 0.1265 µM
  relative viability: 0.944
NCI-H1651; first compound 0.4 µM
  relative viability: 0.757
NCI-H1651; first compound 4 µM
  relative viability: 0.96
NCI-H2085; first compound 0.04 µM
  relative viability: 0.992
NCI-H2085; first compound 0.1265 µM
  relative viability: 0.803
NCI-H2085; first compound 0.4 µM
  relative viability: 0.827
NCI-H2085; first compound 4 µM
  relative viability: 0.724
EKVX; first compound 0.04 µM
  relative viability: 0.954
EKVX; first compound 0.1265 µM
  relative viability: 0.982
EKVX; first compound 0.4 µM
  relative viability: 0.963
EKVX; first compound 4 µM
  relative viability: 0.972
HCC-366; first compound 0.04 µM
  relative viability: 0.752
HCC-366; first compound 0.1265 µM
  relative viability: 0.622
HCC-366; first compound 0.4 µM
  relative viability: 0.428
HCC-366; first compound 4 µM
  relative viability: 0.495
NCI-H460; first compound 0.04 µM
  relative viability: 0.858
NCI-H460; first compound 0.1265 µM
  relative viability: 0.726
NCI-H460; first compound 0.4 µM
  relative viability: 0.682
NCI-H460; first compound 4 µM
  relative viability: 0.371
NCI-H2023; first compound 0.04 µM
  relative viability: 0.751
NCI-H2023; first compound 0.1265 µM
  relative viability: 0.669
NCI-H2023; first compound 0.4 µM
  relative viability: 0.433
NCI-H2023; first compound 4 µM
  relative viability: 0.496
LOU-NH91; first compound 0.04 µM
  relative viability: 1.02
LOU-NH91; first compound 0.1265 µM
  relative viability: 0.956
LOU-NH91; first compound 0.4 µM
  relative viability: 0.906
LOU-NH91; first compound 4 µM
  relative viability: 0.93
NCI-H1734; first compound 0.04 µM
  relative viability: 1.01
NCI-H1734; first compound 0.1265 µM
  relative viability: 0.85
NCI-H1734; first compound 0.4 µM
  relative viability: 0.801
NCI-H1734; first compound 4 µM
  relative viability: 0.92
NCI-H838; first compound 0.04 µM
  relative viability: 0.931
NCI-H838; first compound 0.1265 µM
  relative viability: 0.984
NCI-H838; first compound 0.4 µM
  relative viability: 0.871
NCI-H838; first compound 4 µM
  relative viability: 0.688
LCLC-103H; first compound 0.04 µM
  relative viability: 1.09
LCLC-103H; first compound 0.1265 µM
  relative viability: 0.896
LCLC-103H; first compound 0.4 µM
  relative viability: 1.18
LCLC-103H; first compound 4 µM
  relative viability: 1.14
NCI-H1355; first compound 0.04 µM
  relative viability: 0.857
NCI-H1355; first compound 0.1265 µM
  relative viability: 0.792
NCI-H1355; first compound 0.4 µM
  relative viability: 0.866
NCI-H1355; first compound 4 µM
  relative viability: 0.815
NCI-H1395; first compound 0.04 µM
  relative viability: 1.14
NCI-H1395; first compound 0.1265 µM
  relative viability: 1.16
NCI-H1395; first compound 0.4 µM
  relative viability: 0.992
NCI-H1395; first compound 4 µM
  relative viability: 0.953
NCI-H1975; first compound 0.04 µM
  relative viability: 0.895
NCI-H1975; first compound 0.1265 µM
  relative viability: 0.866
NCI-H1975; first compound 0.4 µM
  relative viability: 0.81
NCI-H1975; first compound 4 µM
  relative viability: 0.8
BEN; first compound 0.04 µM
  relative viability: 0.782
BEN; first compound 0.1265 µM
  relative viability: 0.832
BEN; first compound 0.4 µM
  relative viability: 1.1
BEN; first compound 4 µM
  relative viability: 0.86
NCI-H1437; first compound 0.04 µM
  relative viability: 1.01
NCI-H1437; first compound 0.1265 µM
  relative viability: 0.989
NCI-H1437; first compound 0.4 µM
  relative viability: 0.939
NCI-H1437; first compound 4 µM
  relative viability: 0.575
NCI-H1563; first compound 0.04 µM
  relative viability: 1.17
NCI-H1563; first compound 0.1265 µM
  relative viability: 1.28
NCI-H1563; first compound 0.4 µM
  relative viability: 0.988
NCI-H1563; first compound 4 µM
  relative viability: 1.1
NCI-H358; first compound 0.04 µM
  relative viability: 0.854
NCI-H358; first compound 0.1265 µM
  relative viability: 0.733
NCI-H358; first compound 0.4 µM
  relative viability: 0.703
NCI-H358; first compound 4 µM
  relative viability: 0.487
HCC-44; first compound 0.04 µM
  relative viability: 0.636
HCC-44; first compound 0.1265 µM
  relative viability: 0.683
HCC-44; first compound 0.4 µM
  relative viability: 0.537
HCC-44; first compound 4 µM
  relative viability: 0.632
NCI-H1755; first compound 0.04 µM
  relative viability: 1.01
NCI-H1755; first compound 0.1265 µM
  relative viability: 0.913
NCI-H1755; first compound 0.4 µM
  relative viability: 0.955
NCI-H1755; first compound 4 µM
  relative viability: 0.941

— the supplement of paper PMC10307832
